The source of these data is US9714229B2, “Crystal of tetracyclic compound” (Chugai Seiyaku Kabushiki Kaisha, priority 2014, dated 2017).

Data set [1] is described as follows: Investigation on transformation of crystal form of type II crystal due to humidity (powder X-ray diffraction). It is filed as physicochemical. As to the method:
For the type I, type II, and type III crystals of a monohydrochloride of 9-ethyl-6,6-dimethyl-8-(4-morpholin-4-yl-piperidin-1-yl)-11-oxo-6,11-dihydro-5H-benzo[b]carbazole-3-carbonitrile, the powder X-ray diffraction was measured under the following conditions. The measurement results for the type II crystal, the type III crystal, and the type I crystal are shown in FIGS. 1, 2, and 3. • Measuring apparatus: X'Pert-Pro MPD (manufactured by PANalytical HV) • Anticathode: Cu • Tube voltage: 45 kV • Tube current: 40 mA • Step width: 0.02 • Scan axis: 20 • Sampling time per: 43 seconds • Scan range: 3 to 40°
In order to investigate the transformation of the crystal form of the type II crystal of the monohydrochloride of 9-ethyl-6,6-dimethyl-8-(4-morpholin-4-yl-piperidin-1-yl)-11-oxo-6,11-dihydro-5H-benzo[b]carbazole-3-carbonitrile due to humidity, samples were placed in the following humidity conditions, and changes in crystal form were investigated using the powder X-ray diffraction.
Test Conditions 1 (Investigation on Transformation of Crystal form of Type II Crystal at Low Humidity)
• Amount of sample: About 17 mq • Temperature: Constant temperature of about 25° C. • Atmospheric gas: Dry nitrogen • Flow rate of atmospheric gas: 200 sccm (ml/min) • Mass change rate: 0.002 dm/dt • Relative humidity: Samples were placed at a relative humidity of 0% RH • Minimum waiting time: 10 min • Maximum waiting time: 1200 min. Test Conditions 2 (Iinvestigation on Transformation of Crystal Form of Type II Crystal at High Humidity) • Amount of sample: About 16 mg • Temperature: Constant temperature of about 25° C. • Atmospheric s: Dry nitrogen • Flow rate of atmospheric gas: 200 sccm (ml/min) • Mass change rate: 0.002 dm/dt (%/min) • Relative humidity: Samples were placed at a relative humidity of 70% RH • Minimum waiting time: 10 min • Maximum waiting time: 1200 min

Data set [2] is described as follows: Measurement of vapor sorption isotherm of type II crystal (DVS-1). The conditions noted are these: for weight change rate (%): about 25° C. Format: physicochemical. Here is the method: For the type II crystal of the monohydrochloride of 9-ethyl-6,6-dimethyl-8-(4-morpholin-4-yl-piperidin-1-yl)-11-oxo-6,11-dihydro-5H-benzo[b]carbazole-3-carbonitrile (about 5 mg), the vapor sorption isotherm was measured using a dynamic vapor sorption isotherm instrument: DVS-1 (Surface Measurement Systems) under the following conditions.
• Temperature: Constant temperature of about 25° C. • Atmospheric gas: Dry nitrogen • Flow rate of atmospheric gas: 200 sccm (ml/min) • Minimum waiting time: 10 min • Maximum waiting time: 1200 min • Mass change rate: 0.002 dm/dt (% min), where the mass change rate was 0.001 dm/dt (% min) at 5, 10, 15, 55, 60, and 65% RH.
Relative humidity: Relative humidity was varied to 0, 5, 10, 15, 20, 30, 40, 50, 55, 60, 65, 70, 80, 90, 80, 70, 65, 60, 55, 50, 40, 30, 20, 15, 10, 5, and 0% RR in this order. Such variation was regarded as one cycle, and three cycles were carried out. The weight change rate (%) of the type II crystal, when the temperature environment was varied from a relative humidity of 0% RH to 90% RH at about 25° C., was 3.7% in the range of a relative humidity from 0% RH to 15% RH, 0.05% in the range of a relative humidity from 15% RH to 55% RH, 11% in the range of a relative humidity from 55% RH to 65% RH, and 0.04% in the range of a relative humidity from 65% RH to 90% RH.

Take `CCc1cc2c(cc1N1CCC(N3CCOCC3)CC1)C(C)(C)c1[nH]c3cc(C#N)ccc3c1C2=O` [type II crystal, 9-ethyl-6,6-dimethyl-8-(4-morpholin-4-yl-piperidin-1-yl)-11-oxo-6,11-dihydro-5H-benzo[b]carbazole-3-carbonitrile]: in data set [1] (after storage at 70% RH, powder X-ray diffraction measured over time), the “time after which crystal form had returned to the original form when allowed to stand in the air” value turned out to be 4 h. In addition, in data set [1] (after storage at low humidity (0% RH)), the “time to return to the original crystal form when allowed to stand in the air” value is reported as “within one hour”. Moreover, the “relative humidity at which the crystal absorbs moisture and transforms into another crystal form containing water of crystallization (high humidity environment)” value in data set [1] (inferred from the XRPD results) was not below 65 RH. Also, the “relative humidity at which the crystal dehydrates to an anhydrate (low humidity environment)” value in data set [1] (inferred from the XRPD results) is given as not above 15 % RH. For the same compound, in data set [1] (relative humidity 0% RH, about 25° C., dry nitrogen, powder X-ray diffraction (FIG. 4)), the “change in crystal form on storage at low humidity” value was “transformation into another crystal form was caused”. Further, the “change in crystal form on storage at high humidity” value in data set [1] (relative humidity 70% RH, about 25° C., powder X-ray diffraction (FIG. 5)) is recorded as “transformation into another crystal form was caused”. The “form inferred from molecular weight and mass change rate in high humidity environment” value in data set [2] (humidity of 65% RH or more) is on record as “transformed into a monohydrochloride tetrahydrate”. For the same compound, the “weight change rate (%)” value is given as 3.7% in data set [2] (relative humidity from 0% RH to 15% RH), 0.05% in data set [2] (relative humidity from 15% RH to 55% RH), 11% in data set [2] (relative humidity from 55% RH to 65% RH) and 0.04% in data set [2] (relative humidity from 65% RH to 90% RH). Also, in data set [2] (stored in an atmosphere of 0% RH), the “form inferred from molecular weight and mass change rate on storage at low humidity” value is listed as “transformed into a monohydrochloride”.
